From BindingDB's records for PubMed 11714872 (Astrazeneca R&D, 2001)

How the values were obtained:
[1] = biological target: 5-hydroxytryptamine receptor 7 (Rattus norvegicus, UniProt P32305)
[2] = biological target: 5-hydroxytryptamine receptor 1B (Bos mutus, UniProt L8IGV0)
[3] = biological target: 5-hydroxytryptamine receptor 6 (Rattus norvegicus, UniProt P31388)
[4] = biological target: T1, 5-hydroxytryptamine receptor 3A (Rattus norvegicus, UniProt P35563)
T1 sequence (P35563 whole entry): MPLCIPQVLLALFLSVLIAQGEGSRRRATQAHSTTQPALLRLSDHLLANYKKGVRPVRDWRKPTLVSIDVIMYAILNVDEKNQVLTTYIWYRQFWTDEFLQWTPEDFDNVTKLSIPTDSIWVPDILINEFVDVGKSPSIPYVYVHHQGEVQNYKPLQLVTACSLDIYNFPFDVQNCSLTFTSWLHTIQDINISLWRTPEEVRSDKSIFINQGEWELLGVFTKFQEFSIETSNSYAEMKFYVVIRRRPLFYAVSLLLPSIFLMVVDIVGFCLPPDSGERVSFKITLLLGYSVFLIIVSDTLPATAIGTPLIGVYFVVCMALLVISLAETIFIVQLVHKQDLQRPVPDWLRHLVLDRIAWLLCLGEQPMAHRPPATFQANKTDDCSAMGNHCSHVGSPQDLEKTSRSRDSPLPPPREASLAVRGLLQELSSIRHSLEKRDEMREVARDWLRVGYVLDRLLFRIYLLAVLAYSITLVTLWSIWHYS

[5] = biological target: 5-hydroxytryptamine receptor 2A (Rattus norvegicus, UniProt P14842)
5-hydroxytryptamine receptor 2A, sequence (P14842 whole entry): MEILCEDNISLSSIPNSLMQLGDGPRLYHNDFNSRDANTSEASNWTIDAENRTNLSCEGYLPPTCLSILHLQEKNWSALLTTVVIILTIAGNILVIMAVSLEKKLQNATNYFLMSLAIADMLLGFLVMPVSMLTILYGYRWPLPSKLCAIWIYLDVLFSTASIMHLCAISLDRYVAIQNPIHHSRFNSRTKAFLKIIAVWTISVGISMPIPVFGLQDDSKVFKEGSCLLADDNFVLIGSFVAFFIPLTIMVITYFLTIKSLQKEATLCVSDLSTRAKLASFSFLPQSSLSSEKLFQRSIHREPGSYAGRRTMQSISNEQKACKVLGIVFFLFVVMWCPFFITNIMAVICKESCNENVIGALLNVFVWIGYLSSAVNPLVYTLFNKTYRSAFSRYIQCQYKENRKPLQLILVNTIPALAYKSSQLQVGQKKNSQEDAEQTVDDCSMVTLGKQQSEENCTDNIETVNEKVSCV

[6] = biological target: T2, 5-hydroxytryptamine receptor 2C (Rattus norvegicus, UniProt P08909)
T2 sequence (P08909 whole entry): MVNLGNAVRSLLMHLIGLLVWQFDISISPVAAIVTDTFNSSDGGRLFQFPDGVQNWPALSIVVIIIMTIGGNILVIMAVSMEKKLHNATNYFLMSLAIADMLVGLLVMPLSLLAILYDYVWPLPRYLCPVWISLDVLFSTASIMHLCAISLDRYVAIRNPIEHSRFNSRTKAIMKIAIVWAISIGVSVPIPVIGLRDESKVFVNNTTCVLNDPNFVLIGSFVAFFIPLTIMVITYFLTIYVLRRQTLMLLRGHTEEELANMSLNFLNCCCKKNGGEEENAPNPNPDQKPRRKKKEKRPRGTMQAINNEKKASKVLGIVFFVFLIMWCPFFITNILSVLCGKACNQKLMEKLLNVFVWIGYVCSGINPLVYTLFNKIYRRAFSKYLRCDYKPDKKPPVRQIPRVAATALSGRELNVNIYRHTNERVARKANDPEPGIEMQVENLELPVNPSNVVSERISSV

[7] = biological target: T3, 5-hydroxytryptamine receptor 1A (Rattus norvegicus, UniProt P19327)
T3 sequence (P19327 whole entry): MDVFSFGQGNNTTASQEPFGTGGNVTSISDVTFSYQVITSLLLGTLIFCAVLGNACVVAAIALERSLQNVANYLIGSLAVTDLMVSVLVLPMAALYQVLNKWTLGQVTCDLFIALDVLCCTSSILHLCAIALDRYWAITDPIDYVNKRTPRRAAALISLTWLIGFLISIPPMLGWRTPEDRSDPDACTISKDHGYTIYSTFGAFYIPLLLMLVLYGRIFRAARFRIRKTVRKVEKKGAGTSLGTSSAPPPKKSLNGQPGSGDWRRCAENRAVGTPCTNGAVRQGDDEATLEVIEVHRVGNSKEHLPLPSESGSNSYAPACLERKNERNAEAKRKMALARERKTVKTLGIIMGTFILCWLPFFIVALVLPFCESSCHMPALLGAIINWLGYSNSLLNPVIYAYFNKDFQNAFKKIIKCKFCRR

[8] = biological target: Sodium-dependent serotonin transporter (Rattus norvegicus, UniProt P31652)
Sodium-dependent serotonin transporter, sequence (P31652 whole entry): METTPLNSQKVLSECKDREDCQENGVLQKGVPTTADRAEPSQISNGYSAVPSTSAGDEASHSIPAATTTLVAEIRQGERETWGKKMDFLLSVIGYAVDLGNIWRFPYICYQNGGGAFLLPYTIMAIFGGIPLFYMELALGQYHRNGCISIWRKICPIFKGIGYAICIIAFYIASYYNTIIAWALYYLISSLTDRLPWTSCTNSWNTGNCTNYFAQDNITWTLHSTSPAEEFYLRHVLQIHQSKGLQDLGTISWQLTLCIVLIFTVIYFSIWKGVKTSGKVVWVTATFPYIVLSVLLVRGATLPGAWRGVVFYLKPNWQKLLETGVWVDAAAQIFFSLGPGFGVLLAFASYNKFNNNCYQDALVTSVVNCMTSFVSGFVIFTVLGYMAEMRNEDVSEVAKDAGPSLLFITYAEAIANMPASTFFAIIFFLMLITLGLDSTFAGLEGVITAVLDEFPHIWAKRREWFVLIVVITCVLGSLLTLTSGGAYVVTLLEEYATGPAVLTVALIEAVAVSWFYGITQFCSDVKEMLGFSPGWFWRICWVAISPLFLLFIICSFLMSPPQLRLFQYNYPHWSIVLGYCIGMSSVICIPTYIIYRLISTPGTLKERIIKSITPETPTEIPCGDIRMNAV

5-hydroxytryptamine receptor 6, sequence (P31388 whole entry): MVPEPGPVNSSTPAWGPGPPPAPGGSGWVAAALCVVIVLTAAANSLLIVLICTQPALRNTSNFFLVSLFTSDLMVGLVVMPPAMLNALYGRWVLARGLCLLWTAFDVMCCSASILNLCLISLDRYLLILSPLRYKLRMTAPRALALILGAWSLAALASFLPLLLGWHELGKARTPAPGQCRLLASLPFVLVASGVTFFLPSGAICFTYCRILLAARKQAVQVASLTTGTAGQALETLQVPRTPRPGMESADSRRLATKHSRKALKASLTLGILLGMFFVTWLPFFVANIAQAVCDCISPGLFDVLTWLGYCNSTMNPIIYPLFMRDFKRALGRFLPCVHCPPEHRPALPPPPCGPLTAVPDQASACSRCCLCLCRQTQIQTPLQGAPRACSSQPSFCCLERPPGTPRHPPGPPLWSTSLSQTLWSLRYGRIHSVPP
5-hydroxytryptamine receptor 7, sequence (P32305 whole entry): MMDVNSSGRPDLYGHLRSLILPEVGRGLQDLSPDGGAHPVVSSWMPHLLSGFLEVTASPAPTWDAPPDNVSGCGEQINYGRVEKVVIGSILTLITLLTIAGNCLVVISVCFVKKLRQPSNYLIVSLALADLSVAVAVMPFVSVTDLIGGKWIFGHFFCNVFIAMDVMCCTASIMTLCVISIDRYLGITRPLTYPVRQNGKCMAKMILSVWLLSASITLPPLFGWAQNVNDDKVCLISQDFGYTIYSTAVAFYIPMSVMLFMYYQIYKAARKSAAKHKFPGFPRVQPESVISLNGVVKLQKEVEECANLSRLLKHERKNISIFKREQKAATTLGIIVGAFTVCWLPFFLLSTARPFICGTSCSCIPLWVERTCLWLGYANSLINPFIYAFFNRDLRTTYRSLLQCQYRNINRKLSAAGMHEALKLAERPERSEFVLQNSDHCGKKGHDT
5-hydroxytryptamine receptor 1B, sequence (L8IGV0 whole entry): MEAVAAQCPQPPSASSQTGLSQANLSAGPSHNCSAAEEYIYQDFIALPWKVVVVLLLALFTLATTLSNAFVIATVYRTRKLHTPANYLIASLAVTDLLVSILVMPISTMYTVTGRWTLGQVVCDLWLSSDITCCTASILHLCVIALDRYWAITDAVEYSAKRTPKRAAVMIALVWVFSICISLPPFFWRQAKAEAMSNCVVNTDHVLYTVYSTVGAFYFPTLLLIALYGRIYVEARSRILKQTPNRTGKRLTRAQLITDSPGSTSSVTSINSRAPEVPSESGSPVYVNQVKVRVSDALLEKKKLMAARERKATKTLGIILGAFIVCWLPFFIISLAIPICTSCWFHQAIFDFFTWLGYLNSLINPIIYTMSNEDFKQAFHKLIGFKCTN

| Structure (SMILES) | Ki [1] [nM] | Ki [2] [nM] | Ki [3] [µM] | Ki [4] [nM] | Ki [5] [nM] | Ki [6] [nM] | Ki [7] [nM] | Ki [8] [µM] |
| --- | --- | --- | --- | --- | --- | --- | --- | --- |
| CCCN(C(C)C)[C@H]1COc2cccc(C(=O)NC(C)C)c2C1 [(R)-N-Isopropyl-3-[isopropyl(propyl)amino]-3,4-dihydro-2H-1-benzopyran-5-carboxamide] | 240 | 1400 | > 10 | 500 | > 10000 | 500 | 4.5 | – |
| CCCN(C(C)C)[C@H]1COc2cccc(C(N)=O)c2C1 [(R)-3-[Isopropyl(propyl)amino]-3,4-dihydro-2H-1-benzopyran-5-carboxamide] | 88 | – | > 10 | 500 | 1000 | 500 | 0.26 | > 10 |
